This is an account of results in patent publication US8722909B2, “Antiprotozoal compound derived from coelenterata” (Waseda University, priority 2010, dated 2014).

Common to all, as to type: cell-based
Assay [1] deals with Trypanosoma congolense (bloodstream form). Briefly: Antitrypanosomal activity test (TetraColor ONE, 48 hours). How it is done: Trypanosoma congolense (bloodstream form) 2×10^5 cells were inoculated into a 96-well plate, and a sample diluted with a culture medium was then added and cultured for 48 hours. Subsequently, 10 μL of TetraColor ONE (Seikagaku Biobusiness Corporation) was added to each well to measure the viable cell count, and after 4 hours, the absorbance at 450 nm was measured.

Assay [2] relates to EGFP transgenic Leishmania protozoa (LaEGFP). Briefly: microbe, parasite or virus in culture. Here is the method: EGFP transgenic Leishmania protozoa (LaEGFP, Okuno T et al., Exp. Anim, 52: 109 (2003)) 1×10^5 cells were inoculated into a 96-well plate, and a sample diluted with a culture medium was then added and incubated for 72 hours. Subsequently, the fluorescence intensity within each well was measured using a fluorescence plate reader, and the antileishmanial activity of the test sample was calculated.

Assay [3] has as its system mouse lymphoma-derived P388 cells. Kind of assay: Cytotoxicity test (MTT), P388. The note with it: isolated compound, 72 hours, read-out: IC50 value against P388 cells. How it is done:
(§1) A suspension of human cervical cancer-derived HeLa cells and mouse lymphoma-derived P388 cells (1×10^4 cells/mL) 200 μL was dispended into each well of rows A to H, columns 1 to 11 of a 96-well microplate, and the suspension was then incubated for 24 hours at 37° C. Subsequently, 2 μL of a methanol solution of the sample (1 mg/mL) was added to each well of row A, columns 1 to 10 of the 96-well microplate, and 2 μL of adriamycin (1 mg/mL) was added to the well of row A, column 11 as a positive control. Only the culture medium 200 μL was added to each well of rows A to D, column 12, and 200 μL of the aforementioned suspension of 1×10^4 cells/mL was added to each well of rows E to H, column 12. Using a multi-channel pipette, 50 μL of the culture medium was aspirated from the well of each column of row A and added to the well of the corresponding column of row B, and then 50 μL of the culture medium was aspirated from the well of each column of row B and added to the well of the corresponding column of row C. […] Following culturing for 72 hours, 50 μL of 1 mg/mL PBS solution of MTT (3-[4,5-dimethylthiazol-2-yl]-2,5-diphenyl tetrazolium bromide) was added to each well. […] For each well, the absorbance of the colorimetric substrate dissolved in the DMSO was measured using a multi-well plate reader, and the concentration at which half the cells were inhibited (IC50) was determined. […]

The subject of assay [4] is Plasmodium falciparum K-1 strain. Briefly: Antiplasmodial activity test (SYBR GREEN, 48 hours). To be noted: read-out: IC50 value against the Plasmodium falciparum K-1 strain. Here is the method: Synchronized 0.5% ring stage Plasmodium falciparum K-1 strain 90 μL was added to each well of a 96-well plate, and a sample diluted with a culture medium was then added and incubated for 48 hours. Subsequently, 100 μL of a mixed solution prepared by adding 0.2 μL of SYBR GREEN to 1 mL of lysis buffer (20 mM Tris (pH 7.5), 5 mM EDTA, 0.008% (wt/vol) saponin, 0.08% (vol/vol) Triton X-100) was added to each well, and stirred with a vortex mixer. Following standing for 1 hour in a dark place, the fluorescence was measured with a fluorescence plate reader, using an excitation wavelength of 485 nm and a detection wavelength of 530 nm.

The test system of assay [5] is human cervical cancer-derived HeLa cells. Kind of assay: Cytotoxicity test (MTT), HeLa. To be noted: isolated compound, 72 hours, read-out: IC50 value against HeLa cells. Here is the method:
as §1

Assay [6] concerns human promyelocytic leukemia-derived HL-60 cells. Kind of assay: Cytotoxicity test (MTT), HL-60. To be noted: isolated compound, 72 hours, read-out: IC50 value against HL-60 cells. Here is the method: A suspension of human cervical cancer-derived HeLa cells, human promyelocytic leukemia-derived HL-60 cells, and mouse lymphoma-derived P388 cells (1×10^4 cells/mL) 200 μL was dispended into each well of rows A to H, columns 1 to 11 of a 96-well microplate, and the suspension was then incubated for 24 hours at 37° C. Subsequently, 2 μL of a methanol solution of the sample (1 mg/mL) was added to each well of row A, columns 1 to 10 of the 96-well microplate, and 2 μL of adriamycin (1 mg/mL) was added to the well of row A, column 11 as a positive control. Only the culture medium 200 μL was added to each well of rows A to D, column 12, and 200 μL of the aforementioned suspension of 1×10^4 cells/mL was added to each well of rows E to H, column 12. Using a multi-channel pipette, 50 μL of the culture medium was aspirated from the well of each column of row A and added to the well of the corresponding column of row B, and then 50 μL of the culture medium was aspirated from the well of each column of row B and added to the well of the corresponding column of row C. […] For each well, the absorbance of the colorimetric substrate dissolved in the DMSO was measured using a multi-well plate reader, and the concentration at which half the cells were inhibited (IC50) was determined.

In brackets after ≈: the same amount, converted by molar mass.

As to `C[C@@H]1[C@H](O)[C@@H](C)/C=C/C=C/C=C/C=C/C=C/C=C/C=C/[C@H](O[C@@H]2O[C@H](C)[C@@H](O)[C@H](N)[C@@H]2O)C[C@@H]2O[C@](O)(C[C@@H](O)C[C@@H](O)[C@H](O)CC[C@@H](O)C[C@@H](O)CC(=O)O[C@H]1C)C[C@H](O)[C@H]2C(=O)O` [amphotericin B, reference compound], the “IC50 value against the T. congolense” value in assay [1] worked out at 0.811 µg/mL (≈ 0.878 µM). Besides, the “IC50 value against the LaEGFP (antileishmanial activity)” value in assay [2] (LaEGFP, 72 hours) is reported as “approximately 20 ng/mL”.

In the case of `CC(=O)O/C=C1\CCC/C(C=O)=C\C[C@@H]2C(C(=O)CC=C(C)C)=CO[C@H](OC(C)=O)[C@@H]12` [cristaxenicin A], the IC50 (in general, the point on the concentration scale where inhibition reaches its midpoint) in assay [3] was determined as 0.89 µg/mL (≈ 2.07 µM); in assay [4] it was 4.6 µg/mL (≈ 10.7 µM); in assay [5], 2 µg/mL (≈ 4.65 µM); in assay [1] (Trypanosoma congolense, read-out: IC50 value against the T. congolense), 0.107 µg/mL (≈ 0.249 µM); in assay [2] (Leishmania, 72 h, read-out: IC50 value against the LaEGFP (antileishmanial activity)), 0.036 µg/mL (≈ 0.0836 µM); in assay [6] it was 0.727 µg/mL (≈ 1.69 µM).

Turning to cristaxenicin A, the “antiprotozoal activity of HPLC peak fractions (in words)” value in assay [2] (reversed phase HPLC peak fractions) is given as “exhibited antiprotozoal activity”.
